Measured values: patent publication US20240261274A1, “TREATMENT OF MYC-DRIVEN CANCERS WITH GSPT1 DEGRADERS” (MONTE ROSA THERAPEUTICS, INC., priority 2021, published 2024)

Biological target: GSPT1 (Homo sapiens, UniProt P15170+Q96SW2)
Test: GSPT1 degradation by Compound 345 in cancer cell lines (western blot)
Assay type: cell-based
Set-up: endogenous in cells; host or cells: MM1 S (ATCC CRL-2974)
Protocol: NCI-H1155 and ABC-1 were taken as representative of N-Myc positive NSCLC. NCI-H2023 and NCI-H441 as of N-Myc low representatives. 10A: western blotting analysis performed after 6 (NCI-H1155 and ABC-1) or 24 hr (NCI-H2023 and NCI-H441) posttreatment. […] 10B: corresponding densitometry analyses of GSPT1 normalized to GAPDH. DC50 and Dmax as indicated.
NCI-H1155 and ABC-1 were taken as representative of N-Myc high NSCLC. NCI-H2023 and NCI-H441 as of N-Myc low representatives. Left: densitometry analysis of GSPT1 normalized to GAPDH from western blotting following treatment with Compound 345 (as indicated). Right: 72 hr viability assay following treatment with Compound 345 as assessed by Cell Titer Glo. For both the GSPT1 expression plot and the cell viability plot, two Myc-driven cancer cell lines are represented by upright triangles and diamonds. Two non-Myc-driven cancer cell lines are represented by upside down triangles and circles.
NCI-H1155 and NCI-H2023 were taken as representative of N-Myc high and low NSCLC. 12A: western blot analysis probing for GSPT1 and N-Myc following treatment with Compound 345 (as indicated). Tubulin was used as a loading control. N-Myc could not be detected by western blotting in the NCI-H2023 line. 12B: Single-sample gene set enrichment analysis (ssGSEA) results for a Myc target gene set at 6 hours (left) and 24 hours (right) after treatment. ssGSEA scores were normalized to DMSOs for each cell line and averaged for three replicates. Error bars denote+/−1 s.d. across replicates.
NCI-H1836 and NCI-H1876 were taken as two representatives of L-Myc high SCLC. Western blot analysis probing for GSPT1 and L-Myc following treatment with Compound 345 as indicated. GAPDH was used as a loading control.
FIGS. 16A, 16B and 16C: Activity of Compound 345 in the c-Myc high multiple myeloma MM1S cell line. […] GAPDH was used as a loading control. […] Lenalidomide was used as a benchmark. 16C: Antiproliferative activity of Compound 345 (as indicated) following treatment with Compound 345 for 72 hr as assessed by Cell Titer Glo assay.
(§1) FIGS. 18A, 18B and 18C: Activity of Compound 345 in the c-Myc high WSU-DLCL2 lymphoma cell line. […] GAPDH was used as a loading control. 18B: Antiproliferative activity of Compound 345 (as indicated) following treatment with Compound 345 for 72 hr as assessed by Cell Titer Glo assay. […] Mice were dosed daily PO with vehicle or Compound 345 at 3, 10 mg/kg (as indicated). Tumor volumes were measured twice weekly. X-axis represents the number of days for treatment duration; y-axis represents mean tumor volume (in mm^3)±SEM. CHOP was used as a positive control for this model. Drug-free vehicle is represented by black circles; CHOP combination represented by light squares; Compound 345 3 mg/kg represented by triangles; Compound 345 10 mg/kg represented by dark squares.
as §1, with “19A, 19B,” for “18A, 18B”, “19C:” for “18C:”, “DOHH-2” for “WSU-DLCL2”, “19B:” for “18B:”, “model.” for “model. Drug-free vehicle is represented by black circles; CHOP combination represented by light squares; Compound 345 3 mg/kg represented by triangles; Compound 345 10 mg/kg represented by dark squares.”
Western blot analysis performed 24 hr post treatment initiation. GAPDH was used as a loading control. GSPT1 DC50 and Dmax as indicated.

Sequence of GSPT1 (P15170 whole entry): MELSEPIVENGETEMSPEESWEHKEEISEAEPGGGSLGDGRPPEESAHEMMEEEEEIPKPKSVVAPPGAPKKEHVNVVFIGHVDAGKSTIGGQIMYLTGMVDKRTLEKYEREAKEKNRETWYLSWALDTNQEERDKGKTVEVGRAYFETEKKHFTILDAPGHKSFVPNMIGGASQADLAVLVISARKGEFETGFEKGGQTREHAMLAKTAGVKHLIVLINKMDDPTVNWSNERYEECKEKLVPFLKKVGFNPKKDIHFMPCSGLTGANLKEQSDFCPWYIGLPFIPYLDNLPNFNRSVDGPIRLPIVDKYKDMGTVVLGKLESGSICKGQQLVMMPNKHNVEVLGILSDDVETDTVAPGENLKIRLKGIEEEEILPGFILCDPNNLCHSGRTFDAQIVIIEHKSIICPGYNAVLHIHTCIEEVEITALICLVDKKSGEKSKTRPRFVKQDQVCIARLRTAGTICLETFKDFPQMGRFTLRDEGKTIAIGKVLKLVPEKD
Sequence of GSPT1 (Q96SW2 whole entry): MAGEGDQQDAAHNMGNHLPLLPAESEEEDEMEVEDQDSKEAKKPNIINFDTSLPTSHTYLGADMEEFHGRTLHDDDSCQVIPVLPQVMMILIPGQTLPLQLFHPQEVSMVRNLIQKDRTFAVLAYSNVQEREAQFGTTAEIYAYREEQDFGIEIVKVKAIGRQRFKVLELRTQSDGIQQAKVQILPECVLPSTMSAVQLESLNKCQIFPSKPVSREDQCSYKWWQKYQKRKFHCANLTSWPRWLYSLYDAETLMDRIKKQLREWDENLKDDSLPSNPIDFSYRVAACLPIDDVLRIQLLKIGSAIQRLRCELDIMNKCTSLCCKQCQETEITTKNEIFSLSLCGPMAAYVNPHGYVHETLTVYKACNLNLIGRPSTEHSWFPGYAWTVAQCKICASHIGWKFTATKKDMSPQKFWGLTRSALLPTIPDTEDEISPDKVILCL
Sequence of GSPT1 (Q16531 whole entry partner): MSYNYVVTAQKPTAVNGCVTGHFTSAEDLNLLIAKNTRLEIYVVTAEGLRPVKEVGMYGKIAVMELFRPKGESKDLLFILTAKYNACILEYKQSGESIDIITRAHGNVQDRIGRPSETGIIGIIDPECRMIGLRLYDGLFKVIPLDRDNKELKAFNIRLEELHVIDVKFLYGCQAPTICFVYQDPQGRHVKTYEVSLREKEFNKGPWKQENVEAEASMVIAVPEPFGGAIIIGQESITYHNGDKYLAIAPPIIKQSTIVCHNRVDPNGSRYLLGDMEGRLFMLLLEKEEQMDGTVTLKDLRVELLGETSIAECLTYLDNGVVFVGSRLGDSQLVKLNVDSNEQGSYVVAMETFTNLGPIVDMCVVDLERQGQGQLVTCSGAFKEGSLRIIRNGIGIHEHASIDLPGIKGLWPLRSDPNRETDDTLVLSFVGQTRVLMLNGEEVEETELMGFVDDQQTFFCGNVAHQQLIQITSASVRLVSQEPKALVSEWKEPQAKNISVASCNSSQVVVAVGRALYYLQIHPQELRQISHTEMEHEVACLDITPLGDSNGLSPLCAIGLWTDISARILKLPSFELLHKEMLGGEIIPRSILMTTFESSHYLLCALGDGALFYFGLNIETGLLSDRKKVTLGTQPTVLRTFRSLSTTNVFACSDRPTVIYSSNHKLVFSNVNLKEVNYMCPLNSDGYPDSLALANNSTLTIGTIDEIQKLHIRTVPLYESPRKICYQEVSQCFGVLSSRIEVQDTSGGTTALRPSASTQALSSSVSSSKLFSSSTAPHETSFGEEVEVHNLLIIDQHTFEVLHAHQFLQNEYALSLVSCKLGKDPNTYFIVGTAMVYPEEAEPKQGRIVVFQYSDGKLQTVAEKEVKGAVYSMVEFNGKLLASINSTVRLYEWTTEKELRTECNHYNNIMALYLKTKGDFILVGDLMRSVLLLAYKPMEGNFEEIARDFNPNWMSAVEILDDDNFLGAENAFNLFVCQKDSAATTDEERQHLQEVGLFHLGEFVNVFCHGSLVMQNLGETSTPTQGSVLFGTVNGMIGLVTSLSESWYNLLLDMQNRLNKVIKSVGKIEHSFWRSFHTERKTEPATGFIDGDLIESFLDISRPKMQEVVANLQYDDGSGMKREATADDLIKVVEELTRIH

In the case of `O=C1CCC(N2Cc3ccc(COC(=O)Nc4cc(OC(F)(F)F)ccc4F)cc3C2=O)C(=O)N1` (stereo not drawn) [Compound 345, (2-(2,6-dioxopiperidin-3-yl)-3-oxoisoindolin-5-yl)methyl(2-fluoro-5-(trifluoromethoxy)phenyl)carbamate], the GSPT1 level (DOHH-2 lymphoma cell line, 24 hr post treatment) is reported as “Degradation of GSPT1”, the GSPT1 level (MM1S multiple myeloma cell line, 24 hr post treatment) is reported as “Degradation of GSPT1” and the GSPT1 level (NSCLC lines NCI-H1155, ABC-1 (6 hr), NCI-H2023, NCI-H441 (24 hr)) is reported as “Induced-degradation of GSPT1”. The “GSPT1 level, timecourse” value (NSCLC lines NCI-H1155 and NCI-H2023) was “degradation of GSPT1”, the “GSPT1 level, timecourse” value (SCLC lines NCI-H1836 and NCI-H1876 (L-Myc high)) was “degradation of GSPT1” and the GSPT1 level (WSU-DLCL2 lymphoma cell line, 24 hr post treatment) was “Degradation of GSPT1”.
